Experimental data from patent publication US20160039825A1 (BIOGEN MA INC., priority 2013, published 2016).

molecular target: T1, Human ATX protein (Homo sapiens, UniProt Q13822); assay: Autotaxin (ATX) assay, FRET with FS-3 substrate; assay type: biochemical; details: upper bound bins (no greater than 100, 250 or 500 nM); FS-3 2 μM, ATX 1.0 μg/mL
T1 construct: made in house
Summary of the method: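 In-house human ATX (1.0 μg/mL final) was preincubated with compound for 30 min at room temperature in Tris buffer pH 7.4 with NaCl, KCl, CaCl2, MgCl2 and 1 mg/mL fatty acid-free BSA. FS-3 (2 μM final) was added and the plate shaken 2 h at room temperature in the dark. Fluorescence was read at ex 485/em 538 nm.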

IC50 | SMILES
≤ 100 nM | Cc1cc2n(n1)CCCN(C(=O)OCc1cc(C(F)(F)F)cc(C(F)(F)F)c1)C2 [Example 124, 3,5-Bis(trifluoromethyl)benzyl 2-methyl-7,8-dihydro-4H-pyrazolo[1,5-a][1,4]diazepine-5(6H)-carboxylate]
≤ 100 nM | C[C@@H]1CCCN1CC(=O)c1cc2n(n1)CCCN(C(=O)OCc1cc(Cl)cc(C(F)(F)F)c1)C2 [Example 265]
≤ 500 nM | O=C(O)c1cc2n(n1)CC(O)CN(C(=O)OCc1cc(C(F)(F)F)cc(C(F)(F)F)c1)C2 (stereo not shown) [Example 421]
≤ 100 nM | CN1CCN(C(=O)c2cc3n(n2)CCCN(C(=O)OCc2cc(Cl)cc(C(F)(F)F)c2)C3)C(C(F)(F)F)C1 (stereo not shown) [Example 178]
≤ 100 nM | O=C(CN1CCCC1)c1cc2n(n1)CCCN(C(=O)OCc1cc(Cl)cc(C(F)(F)F)c1)C2 [Example 273]
≤ 100 nM | CC(O)c1cc2n(n1)CCN(C(=O)OCc1cc(C(F)(F)F)cc(C(F)(F)F)c1)C2 (stereo not shown) [Example 396, 3,5-bis(Trifluoromethyl)benzyl 2-(1-hydroxyethyl)-6,7-dihydropyrazolo[1,5-a]pyrazine-5(4H)-carboxylate]
≤ 100 nM | CN1CCN(C(=O)c2cc3n(n2)CCN(C(=O)OCc2cc(C(F)(F)F)cc(C(F)(F)F)c2)C3)CC1 [Example 489]
≤ 100 nM | O=C(CN1CC(C(=O)O)C1)c1cc2n(n1)CCCN(C(=O)OCc1cc(Cl)cc(C(F)(F)F)c1)C2 [Example 272]
≤ 100 nM | O=C(OCc1cc(C(F)(F)F)cc(C(F)(F)F)c1)N1CCCn2nc(C(=O)N3CCNCC34CC4)cc2C1 [Example 219]
≤ 100 nM | CN1CC2CCC1CN2C(=O)c1cc2n(n1)CCCN(C(=O)OCc1cc(C(F)(F)F)cc(C(F)(F)F)c1)C2 (stereo not shown) [Example 222]
≤ 100 nM | O=C(OCc1cc(C(F)(F)F)cc(C(F)(F)F)c1)N1CCn2nc(C3CN4CCC[C@H]4CO3)cc2C1 (stereo partly drawn) [Example 255, 3,5-bis(trifluoromethyl)benzyl 2-((8aS)-hexahydro-1H-pyrrolo[2,1-c][1,4]oxazin-3-yl)-6,7-dihydropyrazolo[1,5-a]pyrazine-5(4H)-carboxylate]
≤ 100 nM | CC1CN(C(=O)c2cc3n(n2)CCN(C(=O)OCc2cc(C(F)(F)F)cc(C(F)(F)F)c2)C3)CCN1C(=O)OC(C)(C)C (stereo not shown) [Example 467]
≤ 100 nM | O=C(CCl)c1cc2n(n1)CCCN(C(=O)OCc1cc(Cl)cc(C(F)(F)F)c1)C2 [Example 250, 3-Chloro-5-(trifluoromethyl)benzyl 2-(2-chloroacetyl)-7,8-dihydro-4H-pyrazolo[1,5-a][1,4]diazepine-5(6H)-carboxylate]
≤ 100 nM | CC1CN(C(=O)c2cc3n(n2)CCN(C(=O)OCc2cc(C(F)(F)F)cc(C(F)(F)F)c2)C3)CCN1 (stereo not shown) [Example 439]
≤ 100 nM | CC(C)C(Nc1cc2n(n1)CCCN(C(=O)OCc1cc(C(F)(F)F)cc(C(F)(F)F)c1)C2)C(=O)O (stereo not shown) [Example 363]
≤ 100 nM | CC1CC(Nc2cc3n(n2)CCCN(C(=O)OCc2cc(C(F)(F)F)cc(C(F)(F)F)c2)C3)CCN1 (stereo not shown) [Example 315]
≤ 100 nM | CC1CN(C(=O)OC(C)(C)C)CCN1C(=O)c1cc2n(n1)CCN(C(=O)OCc1cc(C(F)(F)F)cc(C(F)(F)F)c1)C2 (stereo not shown) [Example 464]
≤ 100 nM | O=C(O)C1CNCCN1C(=O)c1cc2n(n1)CCCN(C(=O)OCc1cc(C(F)(F)F)cc(C(F)(F)F)c1)C2 (stereo not shown) [Example 191]
≤ 100 nM | O=C(OCc1cc(C(F)(F)F)cc(C(F)(F)F)c1)N1CCCn2nc(S(=O)(=O)N3CCCCC3)cc2C1 [Example 304]

Second part, the molecule before the results:

SMILES | IC50
O=C(O)C1CC2CCCC(C1)N2C(=O)c1cc2n(n1)CCCN(C(=O)OCc1ccc(Cl)cc1)C2 (stereo not shown) [Example 59, 9-(5-((4-Chlorobenzyloxy)carbonyl)-5,6,7,8-tetrahydro-4H-pyrazolo[1,5-a][1,4]diazepine-2-carbonyl)-9-aza-bicyclo[3.3.1]nonane-3-carboxylic acid] | ≤ 100 nM
CC(=O)c1cc2n(n1)CCCN(C(=O)OCc1cc(C(F)(F)F)cc(C(F)(F)F)c1)C2 [Example 145, 3,5-Bis(trifluoromethyl)benzyl 2-acetyl-7,8-dihydro-4H-pyrazolo[1,5-a][1,4]diazepine-5(6H)-carboxylate] | ≤ 100 nM
CN1CCN(C(=O)c2cc3n(n2)CCCN(C(=O)OCc2cc(Cl)cc(Cl)c2)C3)CC1 [Example 25, 3,5-Dichlorobenzyl 2-(4-methylpiperazine-1-carbonyl)-7,8-dihydro-4H-pyrazolo[1,5-a][1,4]diazepine-5(6H)-carboxylate] | ≤ 100 nM
O=C(OCc1cc(Cl)cc(C(F)(F)F)c1)N1CCCn2nc(C(=O)N3CC4CCC3CN4)cc2C1 (stereo not shown) [Example 197] | ≤ 100 nM
CC(CO)NC(=O)c1cc2n(n1)CCN(C(=O)OCc1cc(C(F)(F)F)cc(C(F)(F)F)c1)C2 (stereo not shown) [Example 472] | ≤ 100 nM
CC(C)(C)OC(=O)N1CCC(c2cc3n(n2)CCCN(C(=O)OCc2cc(C(F)(F)F)cc(C(F)(F)F)c2)C3)CC1 [Example 374, 3,5-bis(trifluoromethyl)benzyl 2-(1-(tert-butoxycarbonyl)piperidin-4-yl)-7,8-dihydro-4H-pyrazolo[1,5-a][1,4]diazepine-5(6H)-carboxylate] | ≤ 100 nM
CC1CN(C(=O)c2cc3n(n2)CCCN(C(=O)OCc2cc(Cl)cc(C(F)(F)F)c2)C3)CCN1 (stereo not shown) [Example 208] | ≤ 100 nM
CN1CCCN(c2cc3n(n2)CCCN(C(=O)OCc2cc(C(F)(F)F)cc(C(F)(F)F)c2)C3)CC1 [Example 355] | ≤ 100 nM
O=C(OCc1cc(Cl)cc(C(F)(F)F)c1)N1CCCn2nc(C3CN4CCCC[C@@H]4CO3)cc2C1 (mixture of isomers) [Example 254, 3-chloro-5-(trifluoromethyl)benzyl 2-((9aR)-octahydropyrido[2,1-c][1,4]oxazin-3-yl)-7,8-dihydro-4H-pyrazolo[1,5-a][1,4]diazepine-5(6H)-carboxylate] | ≤ 100 nM
O=C(OCc1cc(C(F)(F)F)cc(C(F)(F)F)c1)N1CCCn2nc(C3CCNC3)cc2C1 (stereo not shown) [Example 384] | ≤ 250 nM
CN1C2CCCC1CN(C(=O)c1cc3n(n1)CCCN(C(=O)OCc1cc(Cl)cc(C(F)(F)F)c1)C3)C2 [Example 217] | ≤ 100 nM
O=C(OCc1cc(C(F)(F)F)cc(C(F)(F)F)c1)N1CCn2nc(-c3ccncc3)cc2C1 [Example 499] | ≤ 100 nM
COC(=O)C1CC2CCCC(C1)N2C(=O)c1cc2n(n1)CCCN(C(=O)OCc1cc(Cl)cc(Cl)c1)C2 (stereo not shown) [Example 95, 3,5-Dichlorobenzyl 2-(3-(methoxycarbonyl)-9-azabicyclo[3.3.1]nonane-9-carbonyl)-7,8-dihydro-4H-pyrazolo[1,5-a][1,4]diazepine-5(6H)-carboxylate] | ≤ 100 nM
CC1C=C(c2cc3n(n2)CCCN(C(=O)OCc2cc(C(F)(F)F)cc(C(F)(F)F)c2)C3)CC(C)N1 (stereo not shown) [Example 378] | ≤ 100 nM
CCN1CCN(C(=O)c2cc3n(n2)CCCN(C(=O)OCc2cc(C(F)(F)F)cc(C(F)(F)F)c2)C3)C2(CC2)C1 [Example 237] | ≤ 100 nM
O=C(OCc1cc(C(F)(F)F)cc(C(F)(F)F)c1)N1CCn2cc(C(F)(F)F)nc2C1 [Example 127, 3,5-Bis(trifluoromethyl)benzyl 2-(trifluoromethyl)-5,6-dihydroimidazo[1,2-a]pyrazine-7(8H)-carboxylate] | ≤ 100 nM
O=C(O)C1CC2CCCC(C1)N2C(=O)c1cc2n(n1)CCCN(C(=O)CCc1cc(Cl)cc(Cl)c1)C2 (stereo not shown) [Example 90, 9-(5-(3-(3,5-Dichlorophenyl)propanoyl)-5,6,7,8-tetrahydro-4H-pyrazolo[1,5-a][1,4]diazepine-2-carbonyl)-9-azabicyclo[3.3.1]nonane-3-carboxylic acid] | ≤ 100 nM
CC1CN(C(=O)c2cc3n(n2)CCN(C(=O)OCc2cc(C(F)(F)F)cc(C(F)(F)F)c2)C3)CC(C)N1 (stereo not shown) [Example 433] | ≤ 100 nM
CCC1CNCCN1C(=O)c1cc2n(n1)CCCN(C(=O)OCc1cc(Cl)cc(C(F)(F)F)c1)C2 (stereo not shown) [Example 205] | ≤ 100 nM
Cc1cc(-c2cc3n(n2)CCCN(C(=O)OCc2cc(Cl)cc(C(F)(F)F)c2)C3)ccn1 [Example 370] | ≤ 100 nM
O=C(OCc1cc(Cl)cc(C(F)(F)F)c1)N1CCn2nc(C(=O)N3CC4CCC(C3)N4)cc2C1 [Example 429] | ≤ 100 nM
O=C(OCc1cc(C(F)(F)F)cc(C(F)(F)F)c1)N1CCCn2nc(NC3CC4CCC(C3)N4)cc2C1 (stereo not shown) [Example 318] | ≤ 100 nM
O=C(OCc1cc(Cl)cc(C(F)(F)F)c1)N1CCCn2nc(C(=O)N3CCNCC34CCCC4)cc2C1 [Example 234] | ≤ 100 nM
CCCN1CCN(c2cc3n(n2)CCCN(C(=O)OCc2cc(C(F)(F)F)cc(C(F)(F)F)c2)C3)CC1 [Example 357] | ≤ 100 nM
CNC1CCN(C(=O)c2cc3n(n2)CCCN(C(=O)OCc2cc(Cl)cc(C(F)(F)F)c2)C3)C1 (stereo not shown) [Example 195] | ≤ 100 nM
CN1CCN(C(=O)c2cc3n(n2)CCCN(C(=O)OCc2cc(C(F)(F)F)cc(C(F)(F)F)c2)C3)CC1 [Example 215] | ≤ 100 nM
O=C(O)C1CC2CCCC(C1)N2C(=O)c1cc2n(n1)CCN(C(=O)OCc1ccc(C(F)(F)F)cc1)C2 (stereo not shown) [Example 45, 9-(5-(((4-(Trifluoromethyl)benzyl)oxy)carbonyl)-4,5,6,7-tetrahydropyrazolo[1,5-a]pyrazine-2-carbonyl)-9-azabicyclo[3.3.1]nonane-3-carboxylic acid] | ≤ 250 nM
O=C(O)C1CC2CCCC(C1)N2C(=O)c1cc2n(n1)CCCN(C(=O)OCc1cc(C(F)(F)F)cc(C(F)(F)F)c1)C2 (stereo not shown) [Example 63, 9-(5-((3,5-Bis(trifluoromethyl)benzyloxy)carbonyl)-5,6,7,8-tetrahydro-4H-pyrazolo[1,5-a][1,4]diazepine-2-carbonyl)-9-aza-bicyclo[3.3.1]nonane-3-carboxylic acid] | ≤ 100 nM
N#CC1CNCCN1C(=O)c1cc2n(n1)CCCN(C(=O)OCc1cc(C(F)(F)F)cc(C(F)(F)F)c1)C2 (stereo not shown) [Example 245] | ≤ 100 nM
CC1CNCC(C)N1C(=O)c1cc2n(n1)CCN(C(=O)OCc1cc(C(F)(F)F)cc(C(F)(F)F)c1)C2 (stereo not shown) [Example 430] | ≤ 100 nM
